Source: the supplement of paper PMC11451515

Columns and labels:
Settings in all cases: 48 h
[1] = test system: P12-Ichikawa; test: cell viability relative to DMSO control; higher = less cytotoxic
Summary of the method: (§1)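 Library compounds in DMSO were pin-dosed in an 11-point threefold series (47 μM to 0.79 nM) onto leukemia cells in 1536-well plates (5 μl). Plates held 500 cells/well of NOMO1 or SEM or 1000 cells/well of P12-Ichikawa, each adapted for at least four passages in each medium. Luminescence was read with CellTiter-Glo One after 48 h at 37°C. Viability means the per-plate percentage relative to DMSO wells, using cell-free wells as background.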

[2] = test system: NOMO1; test: as above
Summary of the method: as §1

[3] = test system: SEM cells; test: as above
Summary of the method: as §1

[4] = test system: P12-Ichikawa; test: AUC of viability dose-response curve (% viability x log10 dose units); higher = less sensitive
Summary of the method: (§2)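 Library compounds in DMSO were applied for 48 h at 37°C at 11 threefold doses (47 μM to 0.79 nM) to medium-adapted leukemia cells in 1536-well plates holding 500 or 1000 cells/well. Luminescence from CellTiter-Glo One was normalised plate by plate against DMSO and cell-free wells. Area under the curve came from trapezoidal integration of a log-logistic fit, after scaling curves that rose above full viability and discarding those that failed quality control. The fit had four parameters and used log10 doses.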

[5] = test system: NOMO1; test: as above
Summary of the method: as §2

[6] = test system: SEM cells; test: as above
Summary of the method: as §2

COC(=O)Nc1ccc(-c2nc(N3CCOCC3)c3cnn(C4CCN(Cc5cccnc5)CC4)c3n2)cc1
cell viability [%]
Settings | [1] | [2] | [3]
HPLM + 10% dialyzed FBS, 0.000781 µM | 113 | 117 | 86.4
HPLM + 10% dialyzed FBS, 0.00234 µM | 117 | 117 | 98
HPLM + 10% dialyzed FBS, 0.00702 µM | 112 | 132 | 99
HPLM + 10% dialyzed FBS, 0.0211 µM | 113 | 108 | 92.5
HPLM + 10% dialyzed FBS, 0.0632 µM | 109 | 88.6 | 93.5
HPLM + 10% dialyzed FBS, 0.19 µM | 96.2 | 76.4 | 57.9
HPLM + 10% dialyzed FBS, 0.569 µM | 83.5 | 70.3 | 46.6
HPLM + 10% dialyzed FBS, 1.71 µM | 83.6 | 70.6 | 50.9
HPLM + 10% dialyzed FBS, 5.12 µM | 51.1 | 26.3 | 21.4
HPLM + 10% dialyzed FBS, 15.4 µM | 31.9 | 19.4 | 10.6
HPLM + 10% dialyzed FBS, 46.1 µM | 12.9 | 9.7 | 7.36
RPMI 5 mM glucose + 10% FBS, 0.000781 µM | 106 | 106 | 119
RPMI 5 mM glucose + 10% FBS, 0.00234 µM | 111 | 117 | 98
RPMI 5 mM glucose + 10% FBS, 0.00702 µM | 102 | 119 | 85.5
RPMI 5 mM glucose + 10% FBS, 0.0211 µM | 103 | 105 | 99.9
RPMI 5 mM glucose + 10% FBS, 0.0632 µM | 98.3 | 110 | 75.4
RPMI 5 mM glucose + 10% FBS, 0.19 µM | 69.9 | 92.4 | 54.2
RPMI 5 mM glucose + 10% FBS, 0.569 µM | 61 | 88.7 | 33.3
RPMI 5 mM glucose + 10% FBS, 1.71 µM | 61.4 | 82.6 | 35.9
RPMI 5 mM glucose + 10% FBS, 5.12 µM | 43.1 | 45.4 | 4.31
RPMI 5 mM glucose + 10% FBS, 15.4 µM | 32.4 | 32.4 | 2.26
RPMI 5 mM glucose + 10% FBS, 46.1 µM | 24.7 | 17.6 | 3.9
RPMI 5 mM glucose + 10% dialyzed FBS, 0.000781 µM | 113 | – | 125
RPMI 5 mM glucose + 10% dialyzed FBS, 0.00234 µM | 118 | – | 128
RPMI 5 mM glucose + 10% dialyzed FBS, 0.00702 µM | 114 | – | 112
RPMI 5 mM glucose + 10% dialyzed FBS, 0.0211 µM | 116 | – | 105
RPMI 5 mM glucose + 10% dialyzed FBS, 0.0632 µM | 100 | – | 89.9
RPMI 5 mM glucose + 10% dialyzed FBS, 0.19 µM | 72.3 | – | 67.8
RPMI 5 mM glucose + 10% dialyzed FBS, 0.569 µM | 65.2 | – | 43.7
RPMI 5 mM glucose + 10% dialyzed FBS, 1.71 µM | 59.8 | – | 40.3
RPMI 5 mM glucose + 10% dialyzed FBS, 5.12 µM | 53.1 | – | 6.29
RPMI 5 mM glucose + 10% dialyzed FBS, 15.4 µM | 43.5 | – | 3.11
RPMI 5 mM glucose + 10% dialyzed FBS, 46.1 µM | 6.49 | – | 4.53

AUC of viability dose-response curve
Settings | [4] | [5] | [6]
HPLM + 10% dialyzed FBS | 355 | 298 | 292
RPMI 5 mM glucose + 10% FBS | 323 | 361 | 242
RPMI 5 mM glucose + 10% dialyzed FBS | 314 | 319 | 249

Cn1cnc2c(F)c(Nc3ccc(Br)cc3Cl)c(C(=O)NOCCO)cc21
AUC of viability dose-response curve
Settings | [4] | [5] | [6]
HPLM + 10% dialyzed FBS | 295 | 260 | 295
RPMI 5 mM glucose + 10% FBS | 295 | 289 | 278
RPMI 5 mM glucose + 10% dialyzed FBS | 299 | 258 | 273

NC1CCC(Nc2nc(Nc3ccc(C(=O)N4CCCCC4)cc3)c3ncn(-c4cccc(F)c4)c3n2)CC1 (stereo not drawn)
cell viability [%]
Settings | [1] | [2] | [3]
HPLM + 10% dialyzed FBS, 0.000781 µM | 110 | 114 | 91.7
HPLM + 10% dialyzed FBS, 0.00234 µM | 112 | 110 | 94.8
HPLM + 10% dialyzed FBS, 0.00702 µM | 115 | 119 | 95.2
HPLM + 10% dialyzed FBS, 0.0211 µM | 117 | 121 | 96.6
HPLM + 10% dialyzed FBS, 0.0632 µM | 112 | 132 | 102
HPLM + 10% dialyzed FBS, 0.19 µM | 126 | 117 | 117
HPLM + 10% dialyzed FBS, 0.569 µM | 120 | 129 | 55
HPLM + 10% dialyzed FBS, 1.71 µM | 121 | 144 | 59.1
HPLM + 10% dialyzed FBS, 5.12 µM | 124 | 107 | 102
HPLM + 10% dialyzed FBS, 15.4 µM | 137 | 119 | 128
HPLM + 10% dialyzed FBS, 46.1 µM | 134 | 154 | 125
RPMI 5 mM glucose + 10% FBS, 0.000781 µM | 116 | 117 | 110
RPMI 5 mM glucose + 10% FBS, 0.00234 µM | 119 | 113 | 102
RPMI 5 mM glucose + 10% FBS, 0.00702 µM | 120 | 113 | 104
RPMI 5 mM glucose + 10% FBS, 0.0211 µM | 125 | 126 | 112
RPMI 5 mM glucose + 10% FBS, 0.0632 µM | 120 | 123 | 103
RPMI 5 mM glucose + 10% FBS, 0.19 µM | 128 | 124 | 124
RPMI 5 mM glucose + 10% FBS, 0.569 µM | 125 | 129 | 75.9
RPMI 5 mM glucose + 10% FBS, 1.71 µM | 124 | 107 | 62.9
RPMI 5 mM glucose + 10% FBS, 5.12 µM | 126 | 123 | 100
RPMI 5 mM glucose + 10% FBS, 15.4 µM | 139 | 128 | 110
RPMI 5 mM glucose + 10% FBS, 46.1 µM | 123 | 129 | 90.1
RPMI 5 mM glucose + 10% dialyzed FBS, 0.000781 µM | 112 | 118 | 99.6
RPMI 5 mM glucose + 10% dialyzed FBS, 0.00234 µM | 108 | 114 | 99
RPMI 5 mM glucose + 10% dialyzed FBS, 0.00702 µM | 120 | 133 | 100
RPMI 5 mM glucose + 10% dialyzed FBS, 0.0211 µM | 119 | 113 | 99.3
RPMI 5 mM glucose + 10% dialyzed FBS, 0.0632 µM | 121 | 121 | 106
RPMI 5 mM glucose + 10% dialyzed FBS, 0.19 µM | 123 | 127 | 113
RPMI 5 mM glucose + 10% dialyzed FBS, 0.569 µM | 118 | 127 | 64.6
RPMI 5 mM glucose + 10% dialyzed FBS, 1.71 µM | 118 | 121 | 41.9
RPMI 5 mM glucose + 10% dialyzed FBS, 5.12 µM | 129 | 125 | 98.6
RPMI 5 mM glucose + 10% dialyzed FBS, 15.4 µM | 139 | 119 | 98.6
RPMI 5 mM glucose + 10% dialyzed FBS, 46.1 µM | 130 | 123 | 88.9

AUC of viability dose-response curve
Settings | [4] | [5] | [6]
HPLM + 10% dialyzed FBS | 429 | 437 | 436
RPMI 5 mM glucose + 10% FBS | 459 | 457 | 435
RPMI 5 mM glucose + 10% dialyzed FBS | 439 | 470 | 426

CCCCCCCCCCCCCCCC(=O)O[C@@H]1[C@@H](O)[C@@H](O)[C@@H]([C@H](NC(=O)[C@@H]2C[C@@H](CCC)CN2C)[C@H](C)Cl)O[C@@H]1SC.Cl
AUC of viability dose-response curve
Settings | [4] | [5] | [6]
HPLM + 10% dialyzed FBS | 452 | 426 | 470
RPMI 5 mM glucose + 10% FBS | 456 | 423 | 469
RPMI 5 mM glucose + 10% dialyzed FBS | 442 | 425 | 465

CNNCc1ccc(C(=O)NC(C)C)cc1
cell viability [%], HPLM + 10% dialyzed FBS
Settings | [1] | [3]
0.000781 µM | 118 | 102
0.00234 µM | 123 | 118
0.00702 µM | 125 | 130
0.0211 µM | 136 | 117
0.0632 µM | 124 | 139
0.19 µM | 137 | 133
0.569 µM | 135 | 107
1.71 µM | 144 | 132
5.12 µM | 133 | 83.7
15.4 µM | 119 | 92.1
46.1 µM | 99.7 | 40.7

AUC of viability dose-response curve
Settings | [4] | [5] | [6]
HPLM + 10% dialyzed FBS | 467 | 465 | 434
RPMI 5 mM glucose + 10% FBS | 464 | 468 | 452
RPMI 5 mM glucose + 10% dialyzed FBS | 466 | 468 | 448

N[C@@H](Cc1c[nH]c2ccc(O)cc12)C(=O)O
[3], HPLM + 10% dialyzed FBS
Settings | cell viability [%]
0.000781 µM | 114
0.00234 µM | 110
0.00702 µM | 120
0.0211 µM | 120
0.0632 µM | 94.1
0.19 µM | 121
0.569 µM | 105
1.71 µM | 110
5.12 µM | 102
15.4 µM | 85
46.1 µM | 80.8

AUC of viability dose-response curve
Settings | [4] | [5] | [6]
HPLM + 10% dialyzed FBS | 462 | 391 | 454
RPMI 5 mM glucose + 10% FBS | 444 | 411 | 401
RPMI 5 mM glucose + 10% dialyzed FBS | 458 | 392 | 398

NCCS(=O)(=O)O
AUC of viability dose-response curve
Settings | [4] | [5] | [6]
HPLM + 10% dialyzed FBS | 469 | 441 | 463
RPMI 5 mM glucose + 10% FBS | 458 | 455 | 471
RPMI 5 mM glucose + 10% dialyzed FBS | 463 | 449 | 468

O=C1c2c(O)cc(O)cc2O[C@H](c2cc(O)c(O)c(O)c2)[C@H]1O
AUC of viability dose-response curve
Settings | [4] | [5] | [6]
HPLM + 10% dialyzed FBS | 456 | 430 | 426
RPMI 5 mM glucose + 10% FBS | 452 | 461 | 410
RPMI 5 mM glucose + 10% dialyzed FBS | 455 | 453 | 420

CNC(=O)c1cc(Oc2ccc(NC(=O)Nc3ccc(Cl)c(C(F)(F)F)c3)cc2)ccn1
cell viability [%], [3]
Settings | RPMI 5 mM glucose + 10% FBS | RPMI 5 mM glucose + 10% dialyzed FBS
0.000781 µM | 108 | 109
0.00234 µM | 112 | 108
0.00702 µM | 89.1 | 98.8
0.0211 µM | 89.8 | 79.3
0.0632 µM | 70.8 | 64.7
0.19 µM | 57.1 | 57.8
0.569 µM | 54 | 59.7
1.71 µM | 75.3 | 63.8
5.12 µM | 63.9 | 72.1
15.4 µM | 63 | 68.9
46.1 µM | 5.7 | 11.6

AUC of viability dose-response curve
Settings | [4] | [5] | [6]
HPLM + 10% dialyzed FBS | 457 | 445 | 278
RPMI 5 mM glucose + 10% FBS | 448 | 448 | 313
RPMI 5 mM glucose + 10% dialyzed FBS | 448 | 432 | 317
